Experiments:
Type in all cases: in vivo
[1] = test system: Echinochloa oryzacola Vasing.; assay: Test Example 2: herbicidal activity, application during weed generation in submerged conditions; conditions: Eighteenth Table; application herbicide amount 320 g/ha
Procedure, shortened: (§1)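 Seeds were sown together in alluvial soil kept under 4 cm of water and grown at 25 °C to 30 °C. Once plants reached the one- to two-leaf stage, the diluted emulsion was applied to the water surface at a predetermined g/ha amount, and effects were rated 0–5 after three weeks.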

Monochoria vaginalis = assay: as above; conditions: Eighteenth Table; application herbicide amount 320 g/ha
Procedure, shortened: as §1

Scirpus juncoides = assay: as above; conditions: Eighteenth Table; application herbicide amount 320 g/ha
Procedure, shortened: as §1

Abutilon theophrasti = assay: Test Example 4: herbicidal effect by application to foliage (diluvial soil, plastic box); conditions: for M: herbicidal effect on Abutilon theophrasti: application to foliage, application herbicide amount 320 g/ha
Procedure, shortened: (§2)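 Greenhouse plants (25° C. to 30° C., 14 d, diluvial soil) receive a foliar spray of water-diluted emulsifiable formulation at defined g/ha. Grading after 3 weeks uses a six-step herbicidal-ratio scale, with 4 covering 70% to <90% and 1 covering 5% to <20%.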

Alopecurus myosuroides = assay: as above; conditions: for J: herbicidal effect on Alopecurus myosuroides: application to foliage, application herbicide amount 320 g/ha
Procedure, shortened: as §2

Amaranthus retroflexus = assay: as above; conditions: for N: herbicidal effect on Amaranthus retroflexus: application to foliage, application herbicide amount 320 g/ha
Procedure, shortened: as §2

Apera spica-venti. = assay: as above; conditions: for L: herbicidal effect on Apera spica-venti.: application to foliage, application herbicide amount 320 g/ha
Procedure, shortened: as §2

Avena fatua = assay: as above; conditions: for I: herbicidal effect on Avena fatua: application to foliage, application herbicide amount 320 g/ha
Procedure, shortened: as §2

Chenopodium album = assay: as above; conditions: for O: herbicidal effect on Chenopodium album: application to foliage, application herbicide amount 320 g/ha
Procedure, shortened: as §2

Digitaria ciliaris = assay: as above; conditions: for F: herbicidal effect on Digitaria ciliaris: application to foliage, application herbicide amount 320 g/ha
Procedure, shortened: as §2

[2] = test system: Echinochloa crus-galli var. crus-galli; assay: as above; conditions: for H: herbicidal effect on Echinochloa crus-galli var. crus-galli: application to foliage, application herbicide amount 320 g/ha
Procedure, shortened: as §2

Galium spurium = assay: as above; conditions: for Q: herbicidal effect on Galium spurium: application to foliage, application herbicide amount 320 g/ha
Procedure, shortened: as §2

Lolium multiflorum Lam. = assay: as above; conditions: for K: herbicidal effect on Lolium multiflorum Lam.: application to foliage, application herbicide amount 320 g/ha
Procedure, shortened: as §2

Stellaria media = assay: as above; conditions: for P: herbicidal effect on Stellaria media: application to foliage, application herbicide amount 320 g/ha
Procedure, shortened: as §2

Veronica persica = assay: as above; conditions: for R: herbicidal effect on Veronica persica: application to foliage, application herbicide amount 320 g/ha
Procedure, shortened: as §2

[3] = test system: Beta vulgaris ssp. vulgaris; assay: Test Example 4: effect on crop by application to foliage (diluvial soil, plastic box); conditions: for f: effect on crop, Beta vulgaris ssp. vulgaris: application to foliage, application herbicide amount 320 g/ha
Procedure, shortened: as §2

Brassica campestris L. = assay: as above; conditions: for g: effect on crop, Brassica campestris L.: application to foliage, application herbicide amount 320 g/ha
Procedure, shortened: as §2

Glycine max = assay: as above; conditions: for d: effect on crop, Glycine max: application to foliage, application herbicide amount 320 g/ha
Procedure, shortened: as §2

Triticum aestivum = assay: as above; conditions: for e: effect on crop, Triticum aestivum: application to foliage, application herbicide amount 320 g/ha
Procedure, shortened: as §2

Zea mays = assay: as above; conditions: for c: effect on crop, Zea mays: application to foliage, application herbicide amount 320 g/ha
Procedure, shortened: as §2

[4] = test system: directly sowed Oryza sativa; assay: as above; conditions: for b: effect on crop, directly sowed Oryza sativa: application to foliage, application herbicide amount 320 g/ha
Procedure, shortened: as §2

[5] = Application herbicide amount 320 g/ha, foliage application

Compound	A (Echinochloa oryzicola Vasing.) herbicidal ratio grade [1]	C (Monochoria vaginalis) herbicidal ratio grade (Monochoria vaginalis)	B (Scirpus juncoides) herbicidal ratio grade (Scirpus juncoides)	M: herbicidal effect on Abutilon theophrasti (Abutilon theophrasti)	J: herbicidal effect on Alopecurus myosuroides (Alopecurus myosuroides)	N: herbicidal effect on Amaranthus retroflexus (Amaranthus retroflexus)	L: herbicidal effect on Apera spica-venti. (Apera spica-venti.)	I: herbicidal effect on Avena fatua (Avena fatua)	O: herbicidal effect on Chenopodium album (Chenopodium album)	F: herbicidal effect on Digitaria ciliaris (Digitaria ciliaris)	H: herbicidal effect on Echinochloa crus-galli var. crus-galli [2]	Q: herbicidal effect on Galium spurium (Galium spurium)	K: herbicidal effect on Lolium multiflorum Lam. (Lolium multiflorum Lam.)	P: herbicidal effect on Stellaria media (Stellaria media)	R: herbicidal effect on Veronica persica (Veronica persica)	f: effect on crop, Beta vulgaris ssp. vulgaris [3]	g: effect on crop, Brassica campestris L. (Brassica campestris L.)	d: effect on crop, Glycine max (Glycine max)	e: effect on crop, Triticum aestivum (Triticum aestivum)	c: effect on crop, Zea mays (Zea mays)	also measured
COc1ccc(-c2nnc3c(C(=O)Nc4nnco4)ccc(C(F)(F)F)n23)cc1 [1-149]	3 (Herbicidal ratio of 40% or more and less than 70%)	2 (Herbicidal ratio of 20% or more and less than 40%)	3 (Herbicidal ratio of 40% or more and less than 70%)	–	–	–	–	–	–	–	–	–	–	–	–	–	–	–	–	–	M (Abutilon theophrasti) herbicidal effect grade (Abutilon theophrasti; [5]): 3 (Herbicidal ratio of 40% or more and less than 70%); J (Alopecurus myosuroides) herbicidal effect grade (Alopecurus myosuroides; [5]): 1 (Herbicidal ratio of 5% or more and less than 20%); N (Amaranthus retroflexus) herbicidal effect grade (Amaranthus retroflexus; [5]): 3 (Herbicidal ratio of 40% or more and less than 70%); L (Apera spica-venti.) herbicidal effect grade (Apera spica-venti.; [5]): 2 (Herbicidal ratio of 20% or more and less than 40%); I (Avena fatua) herbicidal effect grade (Avena fatua; [5]): 1 (Herbicidal ratio of 5% or more and less than 20%); O (Chenopodium album) herbicidal effect grade (Chenopodium album; [5]): 5 (Herbicidal ratio of 90% or more (almost completely withered)); F (Digitaria ciliaris) herbicidal effect grade (Digitaria ciliaris; [5]): 4 (Herbicidal ratio of 70% or more and less than 90%); H (Echinochloa crus-galli var. crus-galli) herbicidal effect grade [2, 5]: 4 (Herbicidal ratio of 70% or more and less than 90%); Q (Galium spurium) herbicidal effect grade (Galium spurium; [5]): 3 (Herbicidal ratio of 40% or more and less than 70%); K (Lolium multiflorum Lam.) herbicidal effect grade (Lolium multiflorum Lam.; [5]): 1 (Herbicidal ratio of 5% or more and less than 20%); P (Stellaria media) herbicidal effect grade (Stellaria media; [5]): 5 (Herbicidal ratio of 90% or more (almost completely withered)); R (Veronica persica) herbicidal effect grade (Veronica persica; [5]): 5 (Herbicidal ratio of 90% or more (almost completely withered)); f (Beta vulgaris ssp. vulgaris) effect on crop grade [3, 5]: 5 (Herbicidal ratio of 90% or more (almost completely withered)); g (Brassica campestris L.) effect on crop grade (Brassica campestris L.; [5]): 5 (Herbicidal ratio of 90% or more (almost completely withered)); d (Glycine max) effect on crop grade (Glycine max; [5]): 3 (Herbicidal ratio of 40% or more and less than 70%); e (Triticum aestivum) effect on crop grade (Triticum aestivum; [5]): 0 (Herbicidal ratio of 5% or less (almost no effect)); c (Zea mays) effect on crop grade (Zea mays; [5]): 0 (Herbicidal ratio of 5% or less (almost no effect)); b (directly sowed Oryza sativa) effect on crop grade [4, 5]: 1 (Herbicidal ratio of 5% or more and less than 20%)
CSc1nnc2c(C(=O)Nc3nnnn3C)ccc(C(F)(F)F)n12 [2-013]	5 (Herbicidal ratio of 90% or more (almost completely withered))	2 (Herbicidal ratio of 20% or more and less than 40%)	3 (Herbicidal ratio of 40% or more and less than 70%)	5 (Herbicidal ratio of 90% or more (almost completely withered))	3 (Herbicidal ratio of 40% or more and less than 70%)	5 (Herbicidal ratio of 90% or more (almost completely withered))	4 (Herbicidal ratio of 70% or more and less than 90%)	4 (Herbicidal ratio of 70% or more and less than 90%)	5 (Herbicidal ratio of 90% or more (almost completely withered))	5 (Herbicidal ratio of 90% or more (almost completely withered))	5 (Herbicidal ratio of 90% or more (almost completely withered))	4 (Herbicidal ratio of 70% or more and less than 90%)	3 (Herbicidal ratio of 40% or more and less than 70%)	5 (Herbicidal ratio of 90% or more (almost completely withered))	4 (Herbicidal ratio of 70% or more and less than 90%)	5 (Herbicidal ratio of 90% or more (almost completely withered))	4 (Herbicidal ratio of 70% or more and less than 90%)	4 (Herbicidal ratio of 70% or more and less than 90%)	4 (Herbicidal ratio of 70% or more and less than 90%)	3 (Herbicidal ratio of 40% or more and less than 70%)	b: effect on crop, directly sowed Oryza sativa [4]: 5 (Herbicidal ratio of 90% or more (almost completely withered))
Cn1nnnc1NC(=O)c1ccc(C(F)(F)F)n2c(Br)nnc12 [2-009]	3 (Herbicidal ratio of 40% or more and less than 70%)	3 (Herbicidal ratio of 40% or more and less than 70%)	2 (Herbicidal ratio of 20% or more and less than 40%)	5 (Herbicidal ratio of 90% or more (almost completely withered))	1 (Herbicidal ratio of 5% or more and less than 20%)	5 (Herbicidal ratio of 90% or more (almost completely withered))	1 (Herbicidal ratio of 5% or more and less than 20%)	3 (Herbicidal ratio of 40% or more and less than 70%)	5 (Herbicidal ratio of 90% or more (almost completely withered))	4 (Herbicidal ratio of 70% or more and less than 90%)	5 (Herbicidal ratio of 90% or more (almost completely withered))	4 (Herbicidal ratio of 70% or more and less than 90%)	2 (Herbicidal ratio of 20% or more and less than 40%)	5 (Herbicidal ratio of 90% or more (almost completely withered))	4 (Herbicidal ratio of 70% or more and less than 90%)	5 (Herbicidal ratio of 90% or more (almost completely withered))	4 (Herbicidal ratio of 70% or more and less than 90%)	4 (Herbicidal ratio of 70% or more and less than 90%)	1 (Herbicidal ratio of 5% or more and less than 20%)	1 (Herbicidal ratio of 5% or more and less than 20%)	b: effect on crop, directly sowed Oryza sativa [4]: 2 (Herbicidal ratio of 20% or more and less than 40%)

Reference: patent publication US9708314B2, “Heterocyclic amide compound” (NISSAN CHEMICAL INDUSTRIES, LTD., priority 2013, dated 2017)
